System: Plasmodium berghei
Experiment: Luciferase/luciferin-expressing antifolate-resistant parasites were used to infect a culture of HepG2 cells that were pre-incubated with compounds. Infected hepatocytes emit light due to the luciferase reaction. Assay results are presented as the percent inhibition of light emission compared to control. […]
Format: functional
Conditions: sporozoite; for IC90: read-out: LUCIFERASE INFECTION ASSAY - IC90
[1] = read-out: LUCIFERASE INFECTION ASSAY - IC50

Compound	IC90 [µM]	IC50 [1] [µM]	also measured
N#CC1C(=N)Oc2c3c(c4ccccc4c2C1c1ccc(F)cc1)C(c1ccc(F)cc1)C(C#N)C(=N)O3 (stereo not drawn)	> 6.54		IC50 (FFLUC_HILL_SLOPE 11.1, FFLUC_R_SQUARED 0.748, PBLUC_HILL_SLOPE 2.09, PBLUC_R_SQUARED 0.0277, read-out: LUCIFERASE INFECTION ASSAY - IC50): 4.45 µM
CN(C)C(=O)c1cccc(-c2cn3c(-c4ccc5ncccc5c4)cnc3cn2)c1	> 8.39		IC50 (PBLUC_HILL_SLOPE 5.92, PBLUC_R_SQUARED 0.583, read-out: LUCIFERASE INFECTION ASSAY - IC50): 5.83 µM
Cc1nn(-c2ccccc2)c(Cl)c1C(=O)N1CCN(C(c2ccccc2)c2ccccc2)CC1	> 10	> 10	
CCOc1cc(C2NCC(c3ccccc3)c3c2[nH]c2ccccc32)ccc1OCC(C)C (stereo not drawn)	> 10		IC50 (PBLUC_HILL_SLOPE 4.52, PBLUC_R_SQUARED 0.531, read-out: LUCIFERASE INFECTION ASSAY - IC50): 6.16 µM
Oc1c(Cl)cc(Cl)cc1/C=N/NC(=S)NC1CCCCC1	9.37		IC50 (HEPG2TOX_HILL_SLOPE 8.84, HEPG2TOX_R_SQUARED 0.571, PBLUC_HILL_SLOPE 15.3, PBLUC_R_SQUARED 0.312, read-out: LUCIFERASE INFECTION ASSAY - IC50): 8.11 µM
N#Cc1ccc(COC(=O)c2ccc(O)cc2)cc1	> 10	> 10	
CSc1nc2ccc(NC(=O)c3cn4ccccc4n3)cc2s1	> 10	3.18	
CNC(=O)c1ccc(/C=C/C(=O)N(c2ccc(C)c(F)c2)c2nc3ccccc3s2)cc1	8.92		IC50 (FFLUC_HILL_SLOPE 1.49, FFLUC_R_SQUARED 0.0757, PBLUC_HILL_SLOPE 4.44, PBLUC_R_SQUARED 0.348, read-out: LUCIFERASE INFECTION ASSAY - IC50): 5.44 µM
O=c1c(Cl)c(Cl)cnn1-c1ccc(Cl)cc1Cl	3.5		IC50 (HEPG2TOX_HILL_SLOPE 16.8, 1.83, HEPG2TOX_R_SQUARED 0.839, 0.915, PBLUC_HILL_SLOPE 1.48, 10.9, PBLUC_R_SQUARED 0.768, 0.409, read-out: LUCIFERASE INFECTION ASSAY - IC50): 3.64 µM
Cc1ccc(S(=O)(=O)Nc2cc(SCC(=O)O)c(O)c3ccccc23)cc1	> 10		IC50 (PBLUC_HILL_SLOPE 1.74, PBLUC_R_SQUARED 0.143, read-out: LUCIFERASE INFECTION ASSAY - IC50): > 10 µM
Cc1nc2ncnn2c(C)c1CC(=O)NCCCSc1ccc(F)cc1	> 10	> 10	
CCOC(=O)c1c(-c2ccccc2)oc2ccc(OCC(O)CNCCN(C)C)cc12 (stereo not drawn)	> 10		IC50 (PBLUC_HILL_SLOPE 9.38, PBLUC_R_SQUARED 0.614, read-out: LUCIFERASE INFECTION ASSAY - IC50): 8.91 µM
COc1ccc(-n2nc(C)c3c(O)c4c(nc32)CCCC4)cc1	> 10.7		IC50 (HEPG2TOX_HILL_SLOPE 2.37, HEPG2TOX_R_SQUARED 0.552, read-out: LUCIFERASE INFECTION ASSAY - IC50): > 10.7 µM
COC(=O)c1ccccc1N(C)S(=O)(=O)c1ccc(Cl)cc1F	> 10	> 10	
N#Cc1ccccc1OC(=O)Nc1ccc(SC(F)(F)F)cc1	1.82		IC50 (HEPG2TOX_HILL_SLOPE 3.54, HEPG2TOX_R_SQUARED 0.941, PBLUC_HILL_SLOPE 4.88, PBLUC_R_SQUARED 0.753, read-out: LUCIFERASE INFECTION ASSAY - IC50): 1.16 µM
Cc1cc(C(=O)C(C)OC(=O)CCc2nc(=O)c3ccccc3[nH]2)c(C)n1-c1ccc(Cl)cc1 (stereo not drawn)	> 10		IC50 (HEPG2TOX_HILL_SLOPE 0.024, HEPG2TOX_R_SQUARED 0.0218, read-out: LUCIFERASE INFECTION ASSAY - IC50): > 10 µM
CCOc1cc(N2CCOCC2)c(OCC)cc1NC(=O)c1n[nH]c(=O)c2ccccc12	> 10	> 10	
CCCCNC(=O)c1c(NC(=O)c2ccc(C(F)(F)F)cc2)nc2ccccn12	0.365		IC50 (FFLUC_HILL_SLOPE 8.16, FFLUC_R_SQUARED 0.656, HEPG2TOX_HILL_SLOPE 0.864, HEPG2TOX_R_SQUARED 0.784, PBLUC_HILL_SLOPE 12.7, PBLUC_R_SQUARED 0.564, read-out: LUCIFERASE INFECTION ASSAY - IC50): 0.306 µM
CCN1CCN(C(=O)C23CC4CC(C2)CC(c2ccc(C)cc2)(C4)C3)CC1	> 10	> 10	
CN(C(=O)CN1CCc2ccccc2C1)C1(C#N)CCCCC1	> 10	> 10	
CNc1nc2cnc(Nc3cccc(C(C)C)c3)cc2n1CC1CC1	9.92		IC50 (PBLUC_HILL_SLOPE 4.69, PBLUC_R_SQUARED 0.216, read-out: LUCIFERASE INFECTION ASSAY - IC50): 6.21 µM
c1ccc2c(c1)[nH]c1nc(SCc3cn4ccsc4n3)nnc12	1.85		IC50 (PBLUC_HILL_SLOPE 2.76, PBLUC_R_SQUARED 0.824, read-out: LUCIFERASE INFECTION ASSAY - IC50): 0.836 µM

Compound	IC90 [µM]	IC50 [1] [µM]	also measured
c1ccc(-c2ccc3ncc(-c4cccnc4)n3n2)cc1	3.68		IC50 (HEPG2TOX_HILL_SLOPE 3.18, HEPG2TOX_R_SQUARED 0.875, PBLUC_HILL_SLOPE 8.44, PBLUC_R_SQUARED 0.581, read-out: LUCIFERASE INFECTION ASSAY - IC50): 2.84 µM
CCCCC1(COC(=O)c2ccc(C(C)(C)C)cc2)C(=O)N(c2ccccc2)N(c2ccccc2)C1=O	> 6.62		IC50 (PBLUC_HILL_SLOPE 2.41, PBLUC_R_SQUARED 0.52, read-out: LUCIFERASE INFECTION ASSAY - IC50): 4.52 µM
CC(C)CN1C(=O)N(C)C(=O)C12CCN(Cc1cc3ccccc3s1)CC2	> 8.56		IC50 (PBLUC_HILL_SLOPE 3.77, PBLUC_R_SQUARED 0.71, read-out: LUCIFERASE INFECTION ASSAY - IC50): 6.78 µM
Clc1ccc(SCc2nc(N3CCN(c4ncccn4)CC3)c3c4c(sc3n2)CCC4)cc1	> 10	> 10	
CCc1ccccc1NCC(=O)Nc1cc(Cl)ccc1-n1cncn1	> 10	> 10	
NC(=O)C1Cc2ccccc2CN1S(=O)(=O)c1cccc2c1N=S=N2 (stereo not drawn)	> 10	> 10	
O=C1NC(c2ccccc2)=C(c2nc3ccccc3s2)C(c2cccs2)N1 (stereo not drawn)	> 10		IC50 (FFLUC_HILL_SLOPE 4.26, FFLUC_R_SQUARED 0.397, PBLUC_HILL_SLOPE 0.406, PBLUC_R_SQUARED 0.487, read-out: LUCIFERASE INFECTION ASSAY - IC50): 3.85 µM
O=C1N/C(=N\C2CCCC2)S/C1=C\c1ccc2c(c1)OCCO2	7.77		IC50 (HEPG2TOX_HILL_SLOPE 6.25, HEPG2TOX_R_SQUARED 0.845, PBLUC_HILL_SLOPE 2.64, PBLUC_R_SQUARED 0.759, read-out: LUCIFERASE INFECTION ASSAY - IC50): 3.38 µM
COc1ccc(C(=O)Nc2nc3ccc(C)cn3c2C(=O)NC2CCCCC2)cc1	3.1		IC50 (FFLUC_HILL_SLOPE 17.6, FFLUC_R_SQUARED 0.155, HEPG2TOX_HILL_SLOPE 2.69, HEPG2TOX_R_SQUARED 0.972, PBLUC_HILL_SLOPE 14.3, PBLUC_R_SQUARED 0.423, read-out: LUCIFERASE INFECTION ASSAY - IC50): 2.66 µM
COC(=O)c1cc(N/N=C2\C=CC(=O)c3ncccc32)cc(C(=O)OC)c1	3.38		IC50 (FFLUC_HILL_SLOPE 11, FFLUC_R_SQUARED 0.42, HEPG2TOX_HILL_SLOPE 0.866, HEPG2TOX_R_SQUARED 0.908, PBLUC_HILL_SLOPE 2.75, PBLUC_R_SQUARED 0.794, read-out: LUCIFERASE INFECTION ASSAY - IC50): 1.52 µM
Cc1cccc(OCCCC(=O)Nc2cc(C)n[nH]2)c1	1.35		IC50 (HEPG2TOX_HILL_SLOPE 2.94, HEPG2TOX_R_SQUARED 0.896, PBLUC_HILL_SLOPE 6.3, PBLUC_R_SQUARED 0.571, read-out: LUCIFERASE INFECTION ASSAY - IC50): 0.951 µM
Cc1cnc(NC(=O)c2ccccc2NS(=O)(=O)c2cccc(C(F)(F)F)c2)s1	> 10		IC50 (HEPG2TOX_HILL_SLOPE 2.85, HEPG2TOX_R_SQUARED 0.86, read-out: LUCIFERASE INFECTION ASSAY - IC50): > 10 µM
Cc1cnc(C(=O)OCC(=O)NCCc2ccccc2)cn1	> 10	> 10	
CCNc1nc(CN2CCCCC2)nc2scc(-c3ccccc3)c12	5.12		IC50 (PBLUC_HILL_SLOPE 4.71, PBLUC_R_SQUARED 0.781, read-out: LUCIFERASE INFECTION ASSAY - IC50): 3.21 µM
O=S(=O)(c1ccccc1)N1CN(c2ccc(N3CCOCC3)cc2)c2nc3ccccc3nc21	> 10	> 10	
Fc1cccc(-n2nnnc2-c2ccc(Cl)c(Cl)c2)c1	> 10.7	> 10.7	
Nc1cc(C(F)(F)F)ccc1Sc1ccccn1	> 12.2		IC50 (PBLUC_HILL_SLOPE 27.6, PBLUC_R_SQUARED 0.179, read-out: LUCIFERASE INFECTION ASSAY - IC50): 11.8 µM
COc1cc2c(c(OC)c1OC)Cc1cc(OC)c(OC)c(OC)c1C2	7.66		IC50 (PBLUC_HILL_SLOPE 3.89, PBLUC_R_SQUARED 0.32, read-out: LUCIFERASE INFECTION ASSAY - IC50): 4.36 µM
CC(OC(=O)c1ccc2ncsc2c1)C(=O)N1CCCC1 (stereo not drawn)	> 10	> 10	
O=C1CCCN1c1cccc(Oc2nc(-c3cccnc3)nc3ccccc23)c1	> 10	> 10	
Cc1ccc(CN(C)C(=O)C2CCN(c3ncnc4sc(C)c(C)c34)CC2)o1	> 10		IC50 (PBLUC_HILL_SLOPE 6.95, PBLUC_R_SQUARED 0.517, read-out: LUCIFERASE INFECTION ASSAY - IC50): 8.99 µM
Cc1cc(-c2ccccc2)c(-c2nc3ccccc3[nH]2)[nH]1	1.38		IC50 (HEPG2TOX_HILL_SLOPE 8.44, HEPG2TOX_R_SQUARED 0.516, PBLUC_HILL_SLOPE 11.1, PBLUC_R_SQUARED 0.785, read-out: LUCIFERASE INFECTION ASSAY - IC50): 1.13 µM

From ChEMBL document CHEMBL4483862, “Open-source discovery of chemical leads for next-generation chemoprotective antimalarials” (2018)
